Reference: patent publication US10945685B2, “System and method for normalizing standardized uptake values in brain positron emission tomography (PET) images” (New York University, priority 2018, dated 2021)

Key:
[1] = biological target: T1, Monoamine oxidase B (MAO-B) (Homo sapiens, UniProt P27338); test: MAO-B off-target binding of tau PET tracer; assay type: in vivo; conditions: SUVP data, Example I
T1 construct: from tissue; host or cells: brain of living AD patients and normal control subjects (in vivo PET)
T1 sequence (P27338 1-520): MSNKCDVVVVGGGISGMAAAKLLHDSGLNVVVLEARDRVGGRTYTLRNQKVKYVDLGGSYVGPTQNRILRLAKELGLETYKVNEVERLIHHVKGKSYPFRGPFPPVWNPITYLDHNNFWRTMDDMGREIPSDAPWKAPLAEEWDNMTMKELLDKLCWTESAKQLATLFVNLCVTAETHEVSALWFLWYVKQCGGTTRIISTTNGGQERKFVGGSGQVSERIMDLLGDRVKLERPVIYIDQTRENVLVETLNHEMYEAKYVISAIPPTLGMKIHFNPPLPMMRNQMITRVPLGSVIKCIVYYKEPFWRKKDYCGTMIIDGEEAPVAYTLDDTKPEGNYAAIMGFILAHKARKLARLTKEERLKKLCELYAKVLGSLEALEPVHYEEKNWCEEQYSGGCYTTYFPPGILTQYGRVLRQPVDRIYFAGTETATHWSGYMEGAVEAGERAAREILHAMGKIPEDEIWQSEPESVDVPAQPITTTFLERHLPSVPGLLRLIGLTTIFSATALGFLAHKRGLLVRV

[2] = biological target: T1, Monoamine oxidase B (MAO-B); conditions: recent data, background; cited from earlier work
tau = test: Example II: global and regional tau binding by SUVR, PERSI and SUVP, 42 NL and 22 AD; assay type: in vivo, human; conditions: with SUVR, 64 subjects
Source text: Example II, as discussed below, provides an exemplary embodiment comparing tau PET uptake quantification methods based on a 18F-AV-1451 tracer. Quantitative measurement of tau bindings from PET tracers (such as AV1451) is crucial in the PET-based study of tauopathies (such as Alzheimer's). The standardized uptake value ratio (SUVR) method has been challenged by the off-target binding in reference region. An unbiased tau binding quantification may be achieved via several different methods, including the Parametric Estimate of Reference Signal Intensity (PERSI) method by Avid Radiopharmaceutical and standardized uptake value peak-alignment (SUVP) method. In Example II, we compared the sensitivity of SUVR, PERSI and SUVP methods on the same PET dataset, in both global and local regions.
Using SUVR, PERSI, and SUVP, we evaluated the global and regional tau binding of 18F-AV-1451 on 64 subjects, with 42 cognitively normal (NL) and 22 Alzheimer's disease (AD), and compared the group differences of tau binding under the three different methods. Cerebral cortex was used as ROI for global binding test. The average SUVP value in ROIs is computed by averaging all positive SUVP values (SUVP>0) within the ROI, and positive binding percentage (PBP) for SUVP is defined as the ratio of voxel number with SUVP>1.5 over the total voxel number within the ROI.

[3] = biological target: T2, Monoamine oxidase A (MAO-A) (Homo sapiens, UniProt P21397); conditions: recent data, background; cited from earlier work
T2 sequence (P21397 1-527): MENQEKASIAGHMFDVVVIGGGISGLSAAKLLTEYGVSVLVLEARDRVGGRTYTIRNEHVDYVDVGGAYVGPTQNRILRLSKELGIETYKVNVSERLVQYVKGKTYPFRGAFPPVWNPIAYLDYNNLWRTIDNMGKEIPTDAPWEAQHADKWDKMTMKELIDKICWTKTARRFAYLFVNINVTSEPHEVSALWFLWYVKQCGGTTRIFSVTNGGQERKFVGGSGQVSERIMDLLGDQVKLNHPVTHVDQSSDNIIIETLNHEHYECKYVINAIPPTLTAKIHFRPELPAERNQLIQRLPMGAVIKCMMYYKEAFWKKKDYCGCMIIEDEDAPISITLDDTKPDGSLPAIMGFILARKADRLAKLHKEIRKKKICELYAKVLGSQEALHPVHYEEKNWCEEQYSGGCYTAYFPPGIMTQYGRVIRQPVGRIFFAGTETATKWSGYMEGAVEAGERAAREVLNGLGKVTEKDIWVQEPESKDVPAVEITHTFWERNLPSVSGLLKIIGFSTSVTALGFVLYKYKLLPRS

tau binding, AD subjects versus cognitively normal NL subjects (tau)	Structure (SMILES)	MAO-B off-target binding [1]	MAO-B binding [2]	MAO-A binding [3]
	CNc1ccc(-c2ccc3cc(OC[C@H](O)CF)ccc3n2)cn1 [THK5351]	MAO-B off-target binding in THK5351 was observed	widespread Monoamine oxidase B (MAO-B) binding	
significantly higher tau binding	[18F]c1ccc(-c2ccc3c(c2)[nH]c2ccncc23)cn1 [AV-1451]			some Monoamine oxidase A (MAO-A) binding
